Key:
[1] = biological target: Mitogen-activated protein kinase kinase kinase 9 (Homo sapiens) (UniProt P80192)
[2] = biological target: T1, Megakaryocyte-associated tyrosine-protein kinase (Homo sapiens) (UniProt P42679)
T1 sequence (whole entry): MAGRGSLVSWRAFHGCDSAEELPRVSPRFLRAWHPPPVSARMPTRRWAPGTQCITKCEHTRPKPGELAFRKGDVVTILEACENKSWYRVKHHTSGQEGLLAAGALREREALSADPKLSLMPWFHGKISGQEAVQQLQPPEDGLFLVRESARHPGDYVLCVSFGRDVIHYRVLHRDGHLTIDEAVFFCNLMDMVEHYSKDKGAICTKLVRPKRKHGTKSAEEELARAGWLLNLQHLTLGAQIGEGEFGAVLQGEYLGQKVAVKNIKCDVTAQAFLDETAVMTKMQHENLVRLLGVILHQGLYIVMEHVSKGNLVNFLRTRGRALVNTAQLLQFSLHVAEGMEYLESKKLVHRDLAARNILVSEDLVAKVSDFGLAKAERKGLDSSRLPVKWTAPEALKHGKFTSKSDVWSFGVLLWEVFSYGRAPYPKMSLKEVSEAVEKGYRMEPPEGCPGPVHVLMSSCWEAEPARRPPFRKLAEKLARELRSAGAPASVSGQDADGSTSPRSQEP

[3] = biological target: Interleukin-1 receptor-associated kinase 1 (Homo sapiens) (UniProt P51617)
[4] = test system: Phosphatidylinositol 4,5-bisphosphate 3-kinase catalytic subunit alpha isoform (Homo sapiens), P42336 [C420R]
[5] = biological target: Serine/threonine-protein kinase ULK2 (Homo sapiens) (UniProt Q8IYT8)
[6] = test system: Epidermal growth factor receptor (Homo sapiens), P00533 [UNDEFINED MUTATION]
[7] = test system: Epidermal growth factor receptor (Homo sapiens), P00533 [L858R]
[8] = biological target: T2, Serine/threonine-protein kinase Nek2 (Homo sapiens) (UniProt P51955)
T2 sequence (whole entry): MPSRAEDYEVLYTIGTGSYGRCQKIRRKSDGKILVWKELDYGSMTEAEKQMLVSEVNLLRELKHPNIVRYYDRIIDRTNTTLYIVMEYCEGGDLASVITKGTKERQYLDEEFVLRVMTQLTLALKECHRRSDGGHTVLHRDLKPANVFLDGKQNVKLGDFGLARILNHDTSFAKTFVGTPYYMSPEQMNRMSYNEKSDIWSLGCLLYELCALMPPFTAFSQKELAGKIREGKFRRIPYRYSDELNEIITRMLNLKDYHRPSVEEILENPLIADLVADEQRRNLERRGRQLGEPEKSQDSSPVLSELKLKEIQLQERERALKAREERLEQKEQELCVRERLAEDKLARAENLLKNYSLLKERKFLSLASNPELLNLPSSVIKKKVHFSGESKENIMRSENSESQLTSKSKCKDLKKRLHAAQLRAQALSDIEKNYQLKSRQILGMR

[9] = biological target: Receptor-interacting serine/threonine-protein kinase 2 (Homo sapiens) (UniProt O43353)
[10] = biological target: Serine/threonine-protein kinase Nek10 (Homo sapiens) (UniProt Q6ZWH5)
[11] = test system: ALK tyrosine kinase receptor (Homo sapiens), Q9UM73 [L1196M]
[12] = biological target: T3, Inhibitor of nuclear factor kappa-B kinase subunit epsilon (Homo sapiens) (UniProt Q14164)
T3 sequence (whole entry): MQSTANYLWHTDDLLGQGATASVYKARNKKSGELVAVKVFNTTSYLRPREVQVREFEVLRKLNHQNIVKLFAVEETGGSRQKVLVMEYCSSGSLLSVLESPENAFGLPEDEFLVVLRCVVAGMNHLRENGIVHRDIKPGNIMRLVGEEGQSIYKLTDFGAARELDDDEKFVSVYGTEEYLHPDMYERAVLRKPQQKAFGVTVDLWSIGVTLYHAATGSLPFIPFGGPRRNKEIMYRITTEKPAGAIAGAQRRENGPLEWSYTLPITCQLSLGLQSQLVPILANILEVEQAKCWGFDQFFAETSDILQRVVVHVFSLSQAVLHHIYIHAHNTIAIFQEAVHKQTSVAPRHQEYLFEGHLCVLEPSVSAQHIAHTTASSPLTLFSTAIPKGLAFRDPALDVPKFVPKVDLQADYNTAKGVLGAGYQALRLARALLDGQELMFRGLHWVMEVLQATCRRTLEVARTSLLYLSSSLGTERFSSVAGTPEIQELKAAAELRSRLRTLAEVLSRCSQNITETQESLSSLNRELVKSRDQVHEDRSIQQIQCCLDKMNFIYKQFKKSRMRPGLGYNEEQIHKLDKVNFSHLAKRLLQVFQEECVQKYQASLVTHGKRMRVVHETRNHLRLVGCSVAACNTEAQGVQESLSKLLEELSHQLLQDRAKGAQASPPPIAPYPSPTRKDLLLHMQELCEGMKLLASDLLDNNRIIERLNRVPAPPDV

[13] = test system: Mast/stem cell growth factor receptor Kit (Homo sapiens), P10721 [D816V]
[14] = Compound concentration 1000.0 nM
[15] = Compound concentration 100.0 nM

Measured: residual activity

Phosphatidylinositol 4,5-bisphosphate 3-kinase catalytic subunit alpha isoform (Homo sapiens), P42336 [C420R], sequence (P42336 whole entry C420R, canonical isoform): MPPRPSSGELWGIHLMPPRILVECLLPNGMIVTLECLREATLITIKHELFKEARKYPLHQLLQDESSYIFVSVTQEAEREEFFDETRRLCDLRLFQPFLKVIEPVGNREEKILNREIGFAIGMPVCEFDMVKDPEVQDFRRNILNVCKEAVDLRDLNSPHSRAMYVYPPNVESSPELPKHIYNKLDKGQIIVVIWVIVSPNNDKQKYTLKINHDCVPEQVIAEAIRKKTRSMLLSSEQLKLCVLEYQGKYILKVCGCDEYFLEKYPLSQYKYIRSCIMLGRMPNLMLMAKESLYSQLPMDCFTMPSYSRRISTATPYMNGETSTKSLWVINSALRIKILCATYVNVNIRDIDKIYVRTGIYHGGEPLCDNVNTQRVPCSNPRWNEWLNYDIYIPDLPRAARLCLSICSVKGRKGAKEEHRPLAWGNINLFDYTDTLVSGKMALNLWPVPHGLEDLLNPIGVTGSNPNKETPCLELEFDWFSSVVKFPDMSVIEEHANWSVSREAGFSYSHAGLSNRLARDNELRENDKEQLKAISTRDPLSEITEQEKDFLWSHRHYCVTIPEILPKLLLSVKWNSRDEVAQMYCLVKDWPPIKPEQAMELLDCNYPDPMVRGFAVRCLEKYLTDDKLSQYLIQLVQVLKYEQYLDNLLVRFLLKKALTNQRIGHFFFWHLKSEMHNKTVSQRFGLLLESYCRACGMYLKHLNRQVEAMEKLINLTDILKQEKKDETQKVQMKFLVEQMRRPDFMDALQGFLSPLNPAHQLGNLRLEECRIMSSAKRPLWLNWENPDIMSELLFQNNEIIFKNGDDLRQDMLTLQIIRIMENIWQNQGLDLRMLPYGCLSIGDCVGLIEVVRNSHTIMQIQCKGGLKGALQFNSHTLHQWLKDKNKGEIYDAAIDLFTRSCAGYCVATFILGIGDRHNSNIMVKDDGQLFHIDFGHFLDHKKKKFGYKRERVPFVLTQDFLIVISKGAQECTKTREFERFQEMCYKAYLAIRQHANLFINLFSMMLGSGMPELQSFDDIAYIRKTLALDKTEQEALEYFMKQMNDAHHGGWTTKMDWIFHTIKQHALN
Mitogen-activated protein kinase kinase kinase 9 (Homo sapiens), sequence (P80192 whole entry, looked up): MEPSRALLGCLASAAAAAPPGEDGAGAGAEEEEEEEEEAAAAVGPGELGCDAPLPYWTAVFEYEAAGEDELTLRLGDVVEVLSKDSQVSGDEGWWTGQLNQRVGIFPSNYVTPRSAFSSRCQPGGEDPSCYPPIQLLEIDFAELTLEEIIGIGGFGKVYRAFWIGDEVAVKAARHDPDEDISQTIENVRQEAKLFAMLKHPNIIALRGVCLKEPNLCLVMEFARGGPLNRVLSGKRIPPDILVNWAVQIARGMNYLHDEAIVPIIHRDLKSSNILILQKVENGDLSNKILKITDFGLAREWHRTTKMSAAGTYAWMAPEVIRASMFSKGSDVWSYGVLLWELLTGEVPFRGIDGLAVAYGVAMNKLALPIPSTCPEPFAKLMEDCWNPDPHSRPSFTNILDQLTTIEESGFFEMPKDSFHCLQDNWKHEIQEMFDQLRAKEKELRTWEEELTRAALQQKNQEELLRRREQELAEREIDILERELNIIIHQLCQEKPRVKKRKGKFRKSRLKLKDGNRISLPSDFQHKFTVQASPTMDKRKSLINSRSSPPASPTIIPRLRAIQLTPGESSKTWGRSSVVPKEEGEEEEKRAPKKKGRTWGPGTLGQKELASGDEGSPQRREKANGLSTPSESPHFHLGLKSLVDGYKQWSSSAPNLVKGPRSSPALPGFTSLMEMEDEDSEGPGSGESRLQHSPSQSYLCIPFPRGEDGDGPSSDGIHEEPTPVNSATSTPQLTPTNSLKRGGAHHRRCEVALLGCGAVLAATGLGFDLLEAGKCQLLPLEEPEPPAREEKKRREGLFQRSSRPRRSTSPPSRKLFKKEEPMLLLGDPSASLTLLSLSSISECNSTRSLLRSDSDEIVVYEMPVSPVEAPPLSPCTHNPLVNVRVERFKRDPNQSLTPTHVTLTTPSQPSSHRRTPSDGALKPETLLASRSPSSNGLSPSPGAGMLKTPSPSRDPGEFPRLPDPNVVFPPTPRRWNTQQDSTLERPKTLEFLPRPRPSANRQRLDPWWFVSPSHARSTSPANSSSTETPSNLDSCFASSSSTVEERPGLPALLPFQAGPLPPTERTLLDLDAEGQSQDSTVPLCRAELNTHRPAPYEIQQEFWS
Serine/threonine-protein kinase ULK2 (Homo sapiens), sequence (Q8IYT8 whole entry): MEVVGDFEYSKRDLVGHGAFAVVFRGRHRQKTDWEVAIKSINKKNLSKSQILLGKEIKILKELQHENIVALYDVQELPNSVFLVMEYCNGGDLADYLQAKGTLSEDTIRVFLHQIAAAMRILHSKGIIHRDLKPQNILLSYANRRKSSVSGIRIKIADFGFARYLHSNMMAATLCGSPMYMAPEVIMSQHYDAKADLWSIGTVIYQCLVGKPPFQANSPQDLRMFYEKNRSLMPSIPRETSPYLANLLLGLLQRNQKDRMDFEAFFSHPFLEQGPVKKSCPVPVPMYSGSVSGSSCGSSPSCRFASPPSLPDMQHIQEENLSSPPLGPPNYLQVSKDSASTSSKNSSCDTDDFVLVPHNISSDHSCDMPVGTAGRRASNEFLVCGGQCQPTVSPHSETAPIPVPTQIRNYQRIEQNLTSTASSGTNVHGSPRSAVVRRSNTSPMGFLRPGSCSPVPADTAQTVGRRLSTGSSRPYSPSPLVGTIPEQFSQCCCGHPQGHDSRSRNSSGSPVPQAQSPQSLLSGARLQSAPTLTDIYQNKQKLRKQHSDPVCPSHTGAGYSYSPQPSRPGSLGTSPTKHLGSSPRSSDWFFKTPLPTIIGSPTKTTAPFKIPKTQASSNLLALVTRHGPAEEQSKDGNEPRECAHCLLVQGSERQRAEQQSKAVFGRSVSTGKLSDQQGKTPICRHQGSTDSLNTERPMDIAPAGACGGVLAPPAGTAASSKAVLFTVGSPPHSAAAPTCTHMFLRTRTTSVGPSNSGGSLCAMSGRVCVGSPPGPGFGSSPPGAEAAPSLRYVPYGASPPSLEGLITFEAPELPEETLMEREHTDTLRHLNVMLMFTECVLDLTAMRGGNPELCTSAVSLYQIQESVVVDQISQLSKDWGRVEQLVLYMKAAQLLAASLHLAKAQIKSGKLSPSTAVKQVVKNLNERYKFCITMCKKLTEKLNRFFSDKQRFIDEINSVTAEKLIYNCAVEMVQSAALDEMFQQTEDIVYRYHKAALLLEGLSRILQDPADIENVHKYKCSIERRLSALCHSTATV
Receptor-interacting serine/threonine-protein kinase 2 (Homo sapiens), sequence (O43353 whole entry): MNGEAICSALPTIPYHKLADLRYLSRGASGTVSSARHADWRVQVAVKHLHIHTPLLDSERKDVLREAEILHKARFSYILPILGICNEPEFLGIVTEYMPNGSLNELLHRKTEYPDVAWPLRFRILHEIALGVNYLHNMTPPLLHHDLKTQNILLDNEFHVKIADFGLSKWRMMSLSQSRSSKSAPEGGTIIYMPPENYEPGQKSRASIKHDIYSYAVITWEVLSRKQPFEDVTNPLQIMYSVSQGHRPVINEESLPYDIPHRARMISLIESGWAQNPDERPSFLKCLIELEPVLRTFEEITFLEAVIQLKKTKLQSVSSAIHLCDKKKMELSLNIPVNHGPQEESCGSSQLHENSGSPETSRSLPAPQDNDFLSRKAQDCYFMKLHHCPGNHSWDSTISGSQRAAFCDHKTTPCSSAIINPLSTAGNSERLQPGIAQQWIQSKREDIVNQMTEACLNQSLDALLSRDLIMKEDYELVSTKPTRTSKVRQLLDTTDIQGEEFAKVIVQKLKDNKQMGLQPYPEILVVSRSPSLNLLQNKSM
Mast/stem cell growth factor receptor Kit (Homo sapiens), P10721 [D816V], sequence (P10721 whole entry D816V): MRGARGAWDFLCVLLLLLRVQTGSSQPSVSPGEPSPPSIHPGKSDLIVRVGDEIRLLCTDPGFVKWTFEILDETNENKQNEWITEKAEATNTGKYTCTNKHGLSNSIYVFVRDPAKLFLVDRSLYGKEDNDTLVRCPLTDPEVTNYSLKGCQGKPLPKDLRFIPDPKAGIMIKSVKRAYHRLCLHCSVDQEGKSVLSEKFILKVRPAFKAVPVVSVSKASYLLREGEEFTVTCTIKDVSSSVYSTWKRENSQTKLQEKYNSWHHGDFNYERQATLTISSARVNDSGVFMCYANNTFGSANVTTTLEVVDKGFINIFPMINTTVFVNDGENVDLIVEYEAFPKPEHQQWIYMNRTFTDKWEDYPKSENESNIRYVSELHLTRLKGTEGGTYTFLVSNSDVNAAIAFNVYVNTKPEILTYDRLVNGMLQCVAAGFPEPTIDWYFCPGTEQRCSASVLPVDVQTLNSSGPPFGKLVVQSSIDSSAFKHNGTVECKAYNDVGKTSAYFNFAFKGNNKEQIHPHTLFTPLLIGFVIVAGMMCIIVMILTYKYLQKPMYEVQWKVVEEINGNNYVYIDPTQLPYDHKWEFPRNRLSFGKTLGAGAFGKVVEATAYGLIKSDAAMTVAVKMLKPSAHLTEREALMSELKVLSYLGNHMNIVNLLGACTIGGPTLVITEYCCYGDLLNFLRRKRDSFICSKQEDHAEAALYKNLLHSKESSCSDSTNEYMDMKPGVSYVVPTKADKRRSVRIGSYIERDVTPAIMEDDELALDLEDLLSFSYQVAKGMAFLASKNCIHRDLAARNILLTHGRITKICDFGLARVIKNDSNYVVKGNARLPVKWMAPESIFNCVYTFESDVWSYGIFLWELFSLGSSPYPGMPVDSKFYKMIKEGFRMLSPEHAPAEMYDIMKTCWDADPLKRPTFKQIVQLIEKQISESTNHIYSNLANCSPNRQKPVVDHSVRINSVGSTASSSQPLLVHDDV

C[C@@H]1CN(c2cc(-c3nn(C)c4ccc(OC5(C)CC5)cc34)ncn2)C[C@H](C)O1 [MLi-2-NC]
inactive: [1]; [14] 100% | [2]; [14] 80% | [3]; [14] 67% | [4]; [14] 100% | [5]; [14] 59% | [6]; [14] 92% | [7]; [14] 95% | [8]; [14] 100% | [9]; [14] 100% | [10]; [14] 89% | [11]; [14] 98% | [12]; [14] 65% | [13]; [14] 94%

C[C@@H]1CN(c2cc(-c3n[nH]c4ccc(OC5(C)CC5)cc34)ncn2)C[C@H](C)O1 [MLi-2]
inactive: [1]; [15] 100% | [2]; [15] 94% | [3]; [15] 79% | [4]; [15] 72% | [5]; [15] 69% | [6]; [15] 69% | [7]; [15] 82% | [8]; [15] 86% | [9]; [15] 100% | [10]; [15] 69% | [11]; [15] 78% | [12]; [15] 74% | [13]; [15] 79%

Source: ChEMBL document CHEMBL4507291 (2021)
